Laboratory results published in ChEMBL document CHEMBL1201862, “PubChem BioAssay data set” (2004).
Calls of active or inactive are those of the source.

Experiments:
[1] = target: T1, Lysine-specific demethylase 4C (Homo sapiens, UniProt Q9H3R0); assay: GASC-1 (JMJD2C) histone demethylase inhibitors, dose response, biochemical, DELFIA europium, cherry-picked samples (AID 488835); format: functional
T1 sequence (Q9H3R0 whole entry): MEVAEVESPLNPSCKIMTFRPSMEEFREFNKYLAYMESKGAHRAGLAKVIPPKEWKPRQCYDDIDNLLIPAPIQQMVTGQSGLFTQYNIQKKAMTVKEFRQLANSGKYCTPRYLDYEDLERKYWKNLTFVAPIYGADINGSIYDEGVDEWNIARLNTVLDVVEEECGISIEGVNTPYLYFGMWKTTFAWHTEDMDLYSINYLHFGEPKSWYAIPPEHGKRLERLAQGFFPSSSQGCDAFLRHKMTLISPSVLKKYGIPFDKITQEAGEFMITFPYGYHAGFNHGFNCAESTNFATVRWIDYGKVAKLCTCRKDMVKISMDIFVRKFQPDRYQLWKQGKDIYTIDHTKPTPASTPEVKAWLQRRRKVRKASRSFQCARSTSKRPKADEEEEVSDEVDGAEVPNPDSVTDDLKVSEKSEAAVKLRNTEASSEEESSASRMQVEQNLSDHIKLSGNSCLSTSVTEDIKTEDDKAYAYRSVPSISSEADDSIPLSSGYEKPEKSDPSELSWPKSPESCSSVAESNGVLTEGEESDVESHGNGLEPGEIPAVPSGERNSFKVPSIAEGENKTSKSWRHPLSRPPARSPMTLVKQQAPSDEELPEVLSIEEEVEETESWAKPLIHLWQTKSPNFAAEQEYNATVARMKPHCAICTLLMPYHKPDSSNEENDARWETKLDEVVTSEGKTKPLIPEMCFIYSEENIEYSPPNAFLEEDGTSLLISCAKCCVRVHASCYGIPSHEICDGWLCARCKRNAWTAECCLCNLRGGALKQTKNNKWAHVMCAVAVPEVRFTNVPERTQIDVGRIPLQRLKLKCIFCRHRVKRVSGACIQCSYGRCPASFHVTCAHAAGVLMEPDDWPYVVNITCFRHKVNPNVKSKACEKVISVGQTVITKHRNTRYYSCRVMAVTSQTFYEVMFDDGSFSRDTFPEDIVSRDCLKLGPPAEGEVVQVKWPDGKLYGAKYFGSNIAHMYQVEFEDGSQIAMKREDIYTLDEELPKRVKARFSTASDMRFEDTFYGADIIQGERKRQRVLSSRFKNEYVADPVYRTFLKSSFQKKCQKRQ

cells = format: functional, cell-based
[2] = target: Peroxisome proliferator-activated receptor gamma/Nuclear receptor coactivator 1 (Homo sapiens, UniProt P37231); assay: TR-FRET dose response biochemical High Throughput Screening assay for agonists of the steroid receptor coactivator 1 (SRC-1) recruitment by the peroxisome proliferator-activated receptor gamma (PPAR gamma): non-selective agonists. [Related pubchem assays (depositor defined):AID1300, AID1808, AID504735, AID631]; format: protein assay
[3] = target: Peroxisome proliferator-activated receptor gamma/Nuclear receptor coactivator 3 (Homo sapiens, UniProt P37231); assay: TR-FRET dose response biochemical High Throughput Screening assay for agonists of the steroid receptor coactivator 3 (SRC-3) recruitment by the peroxisome proliferator-activated receptor gamma (PPAR gamma): non-selective agonists. [Related pubchem assays: 1301 (Confirmation screen.), 1048 (Primary screen.)]; format: functional
[4] = target: Peroxisome proliferator-activated receptor gamma/Nuclear receptor coactivator 2 (Homo sapiens, UniProt P37231); assay: TR-FRET dose response biochemical High Throughput Screening assay for agonists of the steroid receptor coactivator 2 (SRC-2) recruitment by the peroxisome proliferator-activated receptor gamma (PPAR gamma): non-selective agonists. [Related pubchem assays: 1297, 1032 ]; format: functional
SUMO-activating enzyme = SUMO-activating enzyme (Homo sapiens, UniProt Q9UBT2); assay: SUMOylation inhibitor hit validation, confirmation, SUMOylation inhibitor project, biochemical, AlphaScreen (AID 2018); format: functional
Coagulation factor XII = target: T2, Coagulation factor XII (Homo sapiens, UniProt P00748); format: functional;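 further: activated factor XIIa alpha cleaving a fluorogenic AMC peptide substrate; inhibitor potency from loss of enzyme activity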
T2 sequence (P00748 whole entry): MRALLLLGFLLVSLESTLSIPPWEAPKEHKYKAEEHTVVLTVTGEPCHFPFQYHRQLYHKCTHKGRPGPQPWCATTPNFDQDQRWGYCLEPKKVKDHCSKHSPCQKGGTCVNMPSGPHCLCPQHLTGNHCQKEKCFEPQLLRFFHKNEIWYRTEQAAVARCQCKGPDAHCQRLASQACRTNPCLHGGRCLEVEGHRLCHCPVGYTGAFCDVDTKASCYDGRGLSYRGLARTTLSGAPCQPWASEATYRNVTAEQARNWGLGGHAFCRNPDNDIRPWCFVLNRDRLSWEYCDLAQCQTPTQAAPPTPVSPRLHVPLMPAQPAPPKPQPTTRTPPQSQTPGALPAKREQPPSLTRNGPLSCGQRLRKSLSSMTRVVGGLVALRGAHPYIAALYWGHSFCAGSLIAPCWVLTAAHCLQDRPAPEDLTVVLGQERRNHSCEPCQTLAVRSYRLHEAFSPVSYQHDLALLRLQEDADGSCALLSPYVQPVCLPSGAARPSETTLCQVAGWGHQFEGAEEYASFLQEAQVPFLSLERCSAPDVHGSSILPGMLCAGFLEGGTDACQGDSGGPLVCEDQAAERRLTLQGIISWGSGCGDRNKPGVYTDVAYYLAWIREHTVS

[5] = target: T3, Microphthalmia-associated transcription factor (Homo sapiens, UniProt O75030); assay: TRPM1 promoter luciferase signal decrease, dose response, MITF inhibitor project, cell-based, SK-MEL-5, cherry-picked, set 3 (AID 493073); format: functional
T3 sequence (O75030 whole entry): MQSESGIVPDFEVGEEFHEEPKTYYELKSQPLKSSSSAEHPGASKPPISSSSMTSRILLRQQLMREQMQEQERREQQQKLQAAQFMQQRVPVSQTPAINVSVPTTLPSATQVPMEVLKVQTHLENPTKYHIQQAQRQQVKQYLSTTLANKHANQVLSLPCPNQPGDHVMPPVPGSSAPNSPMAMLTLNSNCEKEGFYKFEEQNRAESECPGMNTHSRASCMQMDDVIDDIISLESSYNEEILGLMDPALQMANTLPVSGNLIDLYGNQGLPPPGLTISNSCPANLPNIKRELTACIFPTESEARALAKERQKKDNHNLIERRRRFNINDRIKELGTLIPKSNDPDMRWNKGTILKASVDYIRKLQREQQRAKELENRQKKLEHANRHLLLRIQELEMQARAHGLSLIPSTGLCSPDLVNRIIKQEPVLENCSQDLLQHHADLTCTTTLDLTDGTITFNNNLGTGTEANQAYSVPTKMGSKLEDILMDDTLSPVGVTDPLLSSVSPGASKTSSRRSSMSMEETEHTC

A-375 = assay: MITF: Counter assay: A375 proliferation Measured in Cell-Based System Using Plate Reader - 2084-03_Inhibitor_Dose_DryPowder_Activity. [Related pubchem assays (depositor defined):AID488944]; format: functional; conditions: Homo sapiens
Cytochrome P450 1A2 = target: T4, Cytochrome P450 1A2 (Homo sapiens, UniProt P05177);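 further: PubChem cytochrome P450 panel assay, CYP1A2 panel member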
T4 sequence (P05177 whole entry): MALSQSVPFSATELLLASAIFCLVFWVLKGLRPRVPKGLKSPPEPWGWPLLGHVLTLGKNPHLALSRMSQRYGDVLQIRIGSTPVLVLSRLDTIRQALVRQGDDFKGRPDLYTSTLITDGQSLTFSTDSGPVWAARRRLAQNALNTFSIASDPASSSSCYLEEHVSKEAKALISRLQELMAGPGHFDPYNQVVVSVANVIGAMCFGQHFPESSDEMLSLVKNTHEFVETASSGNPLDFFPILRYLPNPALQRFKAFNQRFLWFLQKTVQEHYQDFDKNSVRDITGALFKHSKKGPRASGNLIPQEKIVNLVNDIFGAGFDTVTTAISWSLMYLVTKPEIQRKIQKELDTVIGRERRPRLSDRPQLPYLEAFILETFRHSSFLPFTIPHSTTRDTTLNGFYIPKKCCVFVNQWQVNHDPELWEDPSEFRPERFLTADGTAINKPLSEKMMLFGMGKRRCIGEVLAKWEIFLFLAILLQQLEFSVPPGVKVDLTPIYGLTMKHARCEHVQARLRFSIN

Cytochrome P450 3A4 = Cytochrome P450 3A4 (Homo sapiens, UniProt P08684);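 further: CYP3A4 tested as one member of a cytochrome P450 panel screen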
Escherichia coli = assay: microbe, parasite or virus in culture
[6] = cytotoxicity in HEK-293T cells, dose response, cytotoxicity control for BCR NF-kB inhibitor project, luminescence, B-cell screen hits (AID 489021); format: functional, cell-based;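 further: HEK-293T cells carrying an NF-kB luciferase reporter; cells exposed to compound for about 14 hours before viability readout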
HEK293 [7] = assay: NOD1 signaling inhibitors, primary screen, cell-based, luminescence, uHTS (AID 1578); format: functional; conditions: Homo sapiens
HEK293 [8] = assay: cells; format: functional, cell-based; conditions: Homo sapiens
HEK293 [9] = assay: cells; format: functional, cell-based; conditions: Homo sapiens; remark: listed apart in the source
HEK293 [10] = assay: NOD2 signaling inhibitors in MDP-stimulated cells, cell-based, uHTS, luminescence (AID 2001); format: functional; conditions: Homo sapiens
[11] = target: T5, Calpain-2 catalytic subunit (Sus scrofa, UniProt P43367); assay: pig calpain II inhibitor potency, dose response, biochemical, fluorogenic peptide substrate (AID 1420); format: functional
T5 sequence (P43367 whole entry): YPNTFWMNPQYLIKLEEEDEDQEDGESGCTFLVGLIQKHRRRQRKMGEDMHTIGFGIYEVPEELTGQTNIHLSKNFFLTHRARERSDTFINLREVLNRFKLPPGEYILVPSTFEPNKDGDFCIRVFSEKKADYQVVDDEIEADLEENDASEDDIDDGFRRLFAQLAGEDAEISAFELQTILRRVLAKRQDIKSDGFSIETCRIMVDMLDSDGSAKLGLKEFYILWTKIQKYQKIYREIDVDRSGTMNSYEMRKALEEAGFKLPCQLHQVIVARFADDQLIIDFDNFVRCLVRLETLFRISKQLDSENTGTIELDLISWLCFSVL

[12] = Shn3 3'UTR reporter inhibitors, dose response, cell-based, Clone20 osteoblasts, firefly luciferase, cherry-picked (AID 624132); format: functional;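 further: firefly luciferase luminescence from reporter carrying the Shn3 3'UTR in osteoblasts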
[13] = HepG2 cell cytotoxicity, dose response, cytotoxicity control for Shn3 inhibitor project, CellTiter-Glo, cherry-picked (AID 624134); format: functional, cell-based
[14] = control 3'UTR Renilla luciferase suppression, dose response, counter-screen for Shn3 inhibitor project, cell-based, Clone20-Shn3RL, cherry-picked (AID 624133); format: functional
Cytochrome P450 2C19 = Cytochrome P450 2C19 (Homo sapiens, UniProt P33261); assay: Cytochrome panel assay with activity outcomes. Panel member name: p450-cyp2c19 Compounds with AC50 equal or less than 10 uM are considered active; format: functional; conditions: read-out: AC50
Cytochrome P450 2C19, sequence (P33261 whole entry): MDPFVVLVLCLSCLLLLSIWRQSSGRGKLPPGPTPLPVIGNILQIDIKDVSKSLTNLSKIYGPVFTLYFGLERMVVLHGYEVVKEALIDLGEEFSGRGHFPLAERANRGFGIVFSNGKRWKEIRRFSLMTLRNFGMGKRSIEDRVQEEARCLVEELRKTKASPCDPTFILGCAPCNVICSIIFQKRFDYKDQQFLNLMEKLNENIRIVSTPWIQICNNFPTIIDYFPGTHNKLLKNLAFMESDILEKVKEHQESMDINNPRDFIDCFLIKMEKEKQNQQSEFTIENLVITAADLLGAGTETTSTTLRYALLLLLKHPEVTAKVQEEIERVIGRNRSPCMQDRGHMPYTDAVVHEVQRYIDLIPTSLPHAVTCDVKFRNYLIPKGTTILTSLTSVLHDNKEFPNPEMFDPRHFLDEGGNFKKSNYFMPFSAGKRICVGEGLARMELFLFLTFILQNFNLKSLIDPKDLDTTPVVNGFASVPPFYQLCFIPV

Peroxisome proliferator-activated receptor gamma/Nuclear receptor coactivator 3, sequence (P37231 whole entry): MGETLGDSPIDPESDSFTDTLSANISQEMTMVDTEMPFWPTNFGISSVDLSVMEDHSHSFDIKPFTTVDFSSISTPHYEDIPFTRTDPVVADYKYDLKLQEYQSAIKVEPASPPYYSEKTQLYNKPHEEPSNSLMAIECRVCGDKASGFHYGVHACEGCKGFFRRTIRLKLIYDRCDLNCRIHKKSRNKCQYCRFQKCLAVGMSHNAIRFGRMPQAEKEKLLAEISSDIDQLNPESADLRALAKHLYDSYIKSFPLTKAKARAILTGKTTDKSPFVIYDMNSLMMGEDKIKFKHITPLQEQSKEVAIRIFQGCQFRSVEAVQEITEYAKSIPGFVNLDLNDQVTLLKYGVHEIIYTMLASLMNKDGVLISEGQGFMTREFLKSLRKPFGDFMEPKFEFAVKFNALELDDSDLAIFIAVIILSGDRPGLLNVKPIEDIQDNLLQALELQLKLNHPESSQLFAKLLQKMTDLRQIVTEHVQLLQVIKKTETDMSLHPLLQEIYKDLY
Peroxisome proliferator-activated receptor gamma/Nuclear receptor coactivator 3, sequence (Q9Y6Q9 whole entry, further chain): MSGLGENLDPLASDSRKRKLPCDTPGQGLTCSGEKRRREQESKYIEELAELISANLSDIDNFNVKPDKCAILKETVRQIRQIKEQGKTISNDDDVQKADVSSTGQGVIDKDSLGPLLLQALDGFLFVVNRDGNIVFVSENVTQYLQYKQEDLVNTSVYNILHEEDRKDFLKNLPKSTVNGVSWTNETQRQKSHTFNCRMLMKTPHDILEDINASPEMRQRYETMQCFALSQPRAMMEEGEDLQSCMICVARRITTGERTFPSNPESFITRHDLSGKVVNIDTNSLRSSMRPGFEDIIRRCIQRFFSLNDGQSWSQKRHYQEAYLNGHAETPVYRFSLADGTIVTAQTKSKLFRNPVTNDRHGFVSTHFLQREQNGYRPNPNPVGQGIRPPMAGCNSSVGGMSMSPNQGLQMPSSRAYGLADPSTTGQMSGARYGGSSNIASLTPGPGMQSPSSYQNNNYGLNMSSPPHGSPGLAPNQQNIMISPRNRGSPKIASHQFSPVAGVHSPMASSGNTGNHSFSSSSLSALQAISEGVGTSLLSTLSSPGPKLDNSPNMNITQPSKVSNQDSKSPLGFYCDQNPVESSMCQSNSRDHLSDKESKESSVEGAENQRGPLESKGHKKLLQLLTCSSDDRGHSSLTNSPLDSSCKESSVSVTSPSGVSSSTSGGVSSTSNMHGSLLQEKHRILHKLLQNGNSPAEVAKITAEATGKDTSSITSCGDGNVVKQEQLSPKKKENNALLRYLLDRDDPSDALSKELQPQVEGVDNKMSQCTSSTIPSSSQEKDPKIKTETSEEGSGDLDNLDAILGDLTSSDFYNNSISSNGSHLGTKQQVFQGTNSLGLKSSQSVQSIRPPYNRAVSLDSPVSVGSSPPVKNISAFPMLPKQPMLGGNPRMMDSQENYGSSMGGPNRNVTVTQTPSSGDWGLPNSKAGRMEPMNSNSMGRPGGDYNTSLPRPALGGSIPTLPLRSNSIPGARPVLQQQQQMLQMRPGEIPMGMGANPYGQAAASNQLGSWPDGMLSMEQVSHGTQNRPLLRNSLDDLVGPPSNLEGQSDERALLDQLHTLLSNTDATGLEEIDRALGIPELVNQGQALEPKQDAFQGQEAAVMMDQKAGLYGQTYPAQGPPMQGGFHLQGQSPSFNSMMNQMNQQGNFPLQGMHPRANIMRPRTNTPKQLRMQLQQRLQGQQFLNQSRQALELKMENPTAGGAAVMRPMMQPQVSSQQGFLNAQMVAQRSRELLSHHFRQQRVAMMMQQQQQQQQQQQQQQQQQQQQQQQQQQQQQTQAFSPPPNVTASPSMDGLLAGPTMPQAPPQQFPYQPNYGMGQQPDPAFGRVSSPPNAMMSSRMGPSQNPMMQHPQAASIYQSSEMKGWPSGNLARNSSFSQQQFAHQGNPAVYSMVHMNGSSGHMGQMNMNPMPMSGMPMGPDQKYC
Peroxisome proliferator-activated receptor gamma/Nuclear receptor coactivator 2, sequence (P37231 whole entry): as the sequence (P37231 whole entry) above
Peroxisome proliferator-activated receptor gamma/Nuclear receptor coactivator 2, sequence (Q15596 whole entry, further chain): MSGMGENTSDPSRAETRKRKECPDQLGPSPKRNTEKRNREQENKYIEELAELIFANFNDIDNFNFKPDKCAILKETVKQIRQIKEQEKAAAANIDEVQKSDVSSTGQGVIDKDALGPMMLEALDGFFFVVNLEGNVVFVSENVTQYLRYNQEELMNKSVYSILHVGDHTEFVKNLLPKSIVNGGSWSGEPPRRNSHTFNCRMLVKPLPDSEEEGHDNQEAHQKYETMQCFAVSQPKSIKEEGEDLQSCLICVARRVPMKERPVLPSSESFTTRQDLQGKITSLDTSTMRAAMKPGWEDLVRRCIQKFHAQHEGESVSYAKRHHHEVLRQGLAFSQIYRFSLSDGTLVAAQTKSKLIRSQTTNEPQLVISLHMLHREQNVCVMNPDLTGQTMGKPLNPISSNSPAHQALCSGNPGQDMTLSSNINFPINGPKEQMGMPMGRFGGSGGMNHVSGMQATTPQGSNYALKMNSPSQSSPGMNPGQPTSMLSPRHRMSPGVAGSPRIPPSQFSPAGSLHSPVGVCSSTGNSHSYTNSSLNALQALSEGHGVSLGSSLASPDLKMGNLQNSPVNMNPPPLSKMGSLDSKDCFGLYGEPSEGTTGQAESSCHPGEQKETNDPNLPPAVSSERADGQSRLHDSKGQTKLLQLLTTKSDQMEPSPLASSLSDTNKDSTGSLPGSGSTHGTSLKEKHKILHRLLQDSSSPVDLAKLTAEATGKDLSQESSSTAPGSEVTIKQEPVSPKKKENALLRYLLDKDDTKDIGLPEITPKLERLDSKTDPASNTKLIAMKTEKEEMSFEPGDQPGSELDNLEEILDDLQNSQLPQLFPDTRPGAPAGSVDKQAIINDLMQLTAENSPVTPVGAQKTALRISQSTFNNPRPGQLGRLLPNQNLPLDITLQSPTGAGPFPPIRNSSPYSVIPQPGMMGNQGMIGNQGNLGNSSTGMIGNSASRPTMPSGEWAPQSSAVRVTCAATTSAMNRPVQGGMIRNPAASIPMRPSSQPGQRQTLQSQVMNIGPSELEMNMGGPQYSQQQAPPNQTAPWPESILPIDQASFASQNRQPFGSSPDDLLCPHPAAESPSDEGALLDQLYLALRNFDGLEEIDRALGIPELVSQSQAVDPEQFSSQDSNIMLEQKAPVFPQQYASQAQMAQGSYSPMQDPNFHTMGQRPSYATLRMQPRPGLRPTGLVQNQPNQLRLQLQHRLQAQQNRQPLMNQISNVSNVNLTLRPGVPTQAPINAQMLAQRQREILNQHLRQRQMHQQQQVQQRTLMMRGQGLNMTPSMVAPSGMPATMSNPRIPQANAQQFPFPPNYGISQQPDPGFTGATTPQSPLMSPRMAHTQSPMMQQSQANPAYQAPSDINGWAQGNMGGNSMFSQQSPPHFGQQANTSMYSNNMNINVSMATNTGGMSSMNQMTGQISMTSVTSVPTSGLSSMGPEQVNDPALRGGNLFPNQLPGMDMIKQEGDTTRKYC
Cytochrome P450 3A4, sequence (P08684 whole entry): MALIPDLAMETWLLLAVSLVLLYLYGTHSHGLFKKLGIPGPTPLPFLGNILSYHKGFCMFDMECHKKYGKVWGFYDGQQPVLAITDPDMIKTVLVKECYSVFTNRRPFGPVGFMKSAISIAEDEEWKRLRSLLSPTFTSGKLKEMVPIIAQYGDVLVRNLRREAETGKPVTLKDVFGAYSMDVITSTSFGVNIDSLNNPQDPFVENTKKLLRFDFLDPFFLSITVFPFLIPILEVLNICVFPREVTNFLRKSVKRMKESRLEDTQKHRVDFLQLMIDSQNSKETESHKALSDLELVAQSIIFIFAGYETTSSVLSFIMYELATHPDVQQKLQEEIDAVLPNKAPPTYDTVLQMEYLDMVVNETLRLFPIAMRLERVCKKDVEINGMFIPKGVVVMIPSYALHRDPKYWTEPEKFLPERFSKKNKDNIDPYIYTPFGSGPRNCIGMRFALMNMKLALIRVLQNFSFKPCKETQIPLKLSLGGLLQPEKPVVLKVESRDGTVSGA

COC(=O)[C@@H](N)Cc1ccc(O)c(O)c1
AC50 [1]: 11.5 µM (active)

COc1ccc(-c2csc(NNC3=NCCCCC3)n2)cc1
EC50 (cells): > 350 µM (not active) | AC50 [1]: 7.08 µM (active)

CCn1c(=O)cc(SCC(=O)NCc2ccc3c(c2)OCO3)c2ccccc21
EC50 [2]: > 79.4 µM (inactive) | EC50 [3]: > 79.4 µM (not active) | EC50 [4]: > 79.4 µM (not active)

COCCCNC(=O)C1CCN(C(=O)Nc2ccc(Cl)cc2)CC1
AC50 [1]: 44.8 µM (active)

O=C(Nc1ccc(S(=O)(=O)Nc2ncccn2)cc1)c1ccc(Br)s1
EC50 [2]: > 79.4 µM (inactive) | EC50 [3]: > 79.4 µM (not active) | EC50 [4]: > 79.4 µM (not active)

CCc1nn(CC(=O)NC(C)CCc2ccccc2)c(=O)c2cc3cc(F)ccc3n12 (configuration not stated)
IC50 (SUMO-activating enzyme): 45.3 µM (active)

CCc1cccc(CC)c1N(COC)C(=O)Cn1c(CO)nc2ccccc21
IC50 (Coagulation factor XII): > 50 µM (inactive)

CCN1CCN(C2=C(NS(=O)(=O)c3ccc(C)cc3)C(=O)c3ccccc3C2=O)CC1
AC50 [5]: 4.18 µM (active) | AC50 (A-375): 36.6 µM (active)

Cc1ccc2nc(SCc3nnc(-c4ccccc4[N+](=O)[O-])o3)c(C#N)cc2c1
AC50 (Cytochrome P450 1A2): 1.58 µM (inconclusive) | AC50 (Cytochrome P450 3A4): inconclusive

O=C(CN(Cc1ccco1)C(=O)c1ccccc1F)Nc1ccccc1C(F)(F)F
AC50 (Escherichia coli): 103 µM (active)

CCn1c(=O)cc(SCC(=O)N2CCC3(CC2)OCCO3)c2ccccc21
EC50 [2]: > 79.4 µM (inactive) | EC50 [3]: > 79.4 µM (not active) | EC50 [4]: > 79.4 µM (not active) | IC50 [6]: > 80 µM (inactive)

CC(C)Cn1c(N)c(C(=O)COC(=O)CC23CC4CC(CC(C4)C2)C3)c(=O)n(C)c1=O
EC50 (HEK293 [7]): 3.06 µM (active) | IC50 (HEK293 [8]): 2.31 µM (active) | IC50 (HEK293 [9]): 6.35 µM (active) | IC50 (HEK293 [10]): 3.31 µM (active) | IC50 [11]: 5.92 µM (not active) | AC50 [12]: 1.51 µM (active) | AC50 [13]: 1.7 µM (active) | AC50 [14]: 0.435 µM (active)

COc1cccc(OC)c1C(=O)Nc1nnc(-c2cccs2)s1
EC50 [2]: 17.7 µM (inactive) | EC50 [3]: > 79.4 µM (not active) | EC50 [4]: 22 µM (not active)

O=C(CCNC(=O)c1ccc([N+](=O)[O-])cc1)Nc1cccc(S(=O)(=O)N2CCCCCC2)c1
AC50 (Escherichia coli): 57 µM (active)

Cc1cc(NC(=O)CCN2C(=O)/C(=C/c3ccccc3F)SC2=S)no1
IC50 (Coagulation factor XII): > 50 µM (inactive)

Cc1cc(NC(=O)CSc2nc3ccsc3c(=O)n2CCCCC(=O)O)no1
AC50 (Cytochrome P450 2C19): 3.98 µM (inconclusive) | AC50 (Cytochrome P450 3A4): inconclusive

CO[C@@]12[C@@H]3N[C@@H]3CN1C1=C(C(=O)C(N)=C(C)C1=O)[C@@H]2COC(N)=O
AC50 (Escherichia coli): 0.496 µM (active)
